Results from patent US6451734B1, “Substituted 3-benzylpyrazoles and their use as herbicides” (BASF Aktiengesellschaft, priority 1996, dated 2002).

Key:
Assay type in all cases: in vivo
[1] = effect on the plasma glucose and insulin level in diabetes mice; conditions: homocygotic diabetes mice, not fed for one night; by pharyngeal tube in 0.25% hydroxyethylcellulose; blood collected 2 and 4 hours after treatment
Text: The animals which were used in the experiments described below received, in addition to sufficient water, a standard feed (“Rat and Mouse Breeder and Grower Diet” supplied by Special Diets Services Ltd., UK). Effect of the active compounds according to the invention on the plasma glucose and insulin level The laboratory animals used were homocygotic diabetes mice (40—60 g, supplied by Harlan UK) which were initially not fed for one night and then separated into different groups. The active compounds were administered as a solution or suspension in 0.25% strength aqueous hydroxyethylcellulose (CELLOSIZE supplied by UCC) using a pharyngeal tube, namely at 5 ml/kg of body weight. 2 and 4 hours after the treatment, approximately 50 μl each of blood were collected from the tip of the tail in capillary tubes for the collection of blood containing lithium heparin (supplied by Sarstedt, “Microvette CB300LH”). Plasma samples (5 μl) were immediately tested for their glucose content. A further 10 μl were stored in an Eppendorf tube at (−70)° C. until the plasma glucose and insulin content were determined.

[2] = determination of glucose elimination via urine in CD1-mice
Method: The animals which were used in the experiments described below received, in addition to sufficient water, a standard feed (“Rat and Mouse Breeder and Grower Diet” supplied by Special Diets Services Ltd., UK). Determination of Glucose Elimination via Urine In this experiment, 4 groups of 5 CD1-mice each (20—25 g, supplied by Harlan, UK) were transferred into metabolism cages and initially acclimatized for 24 hours. By pharyngeal tube, animals were then administered 100 mg/kg of body weight of the active compound IIIc.1, dissolved or suspended in 0.25% strength aqueous hydroxyethylcellulose (CELLOSIZE supplied by UCC). For comparison, 0.25% strength aqueous Cellosize without active compound was administered to the other 10 mice. The urine was subsequently collected for 24 hours and its total volume was measured. In each case […] of urine were examined for their glucose content.

Abutilon theophrasti = experiment: greenhouse experiment, post-emergence treatment (herbicidal activity); conditions: Abutilon theophrasti (velvet leaf), 0.125 kg/ha of a.s.
Text: (§1) The herbicidal activity of the substituted 3-benzylpyrazoles I was demostrated by the following greenhouse experiments: The culture containers used were plastic flowerpots containing loamy soil with approximately 3.0% of humus as the substrate. The seeds of the test plants were sown separately for each species. For the post-emergence treatment, the test plants were first grown to a plant height of 3 to 15 cm, depending on the plant habit, and only then treated with the active ingredients which had been suspended or emulsified in water. The test plants for this purpose were either sown directly and grown in the same containers, or they were first grown separately as seedlings and transplanted into the test containers a few days prior to treatment. The rate of application for the post-emergence treatment was 0.125 kg/ha of a.s. (active substance). Depending on the species, the plants were kept at 10-25° C. or 20-35° C. The test period extended over 2 to 4 weeks. During this time, the plants were tended, and their response to the individual treatments was evaluated. Evaluation was carried out using a scale from 0 to 100. 100 means no emergence of the plants, or complete destruction of at least the aerial parts, and 0 means no damage, or normal course of growth. The plants used in the greenhouse experiments belonged to the following species: [table]

Amaranthus retroflexus = experiment: as above; conditions: Amaranthus retroflexus (redroot pigweed), 0.125 kg/ha of a.s.
Text: as §1

Setaria viridis = experiment: as above; conditions: Setaria viridis (green foxtail), 0.125 kg/ha of a.s.
Text: as §1

Solanum nigrum = experiment: as above; conditions: Solanum nigrum (black nightshade), 0.125 kg/ha of a.s.
Text: as §1

[3] = 10 CD1-mice, 100 mg/kg of body weight by pharyngeal tube, urine collected for 24 hours

Row | SMILES | plasma insulin level [1] | glucose concentration of the urine [2, 3] | total elimination of glucose [2, 3] | increase of the elimination of glucose (via urine) ([2]; CD1-mice, 100 mg/kg by pharyngeal tube, 24 hours, versus Cellosize without active compound) | herbicidal activity (Abutilon theophrasti) | herbicidal activity (Amaranthus retroflexus) | herbicidal activity (Setaria viridis) | herbicidal activity (Solanum nigrum)
1 | Cn1c(=O)cc(Cc2cccc(Cl)c2Cl)n1C(F)F [IIIc.1, 5-(2,3-Dichlorobenzyl)-1-difluoromethyl-1,2-dihydro-2-methyl-3H-pyrazol-3-one] | substantially unchanged | 17.62 mmol/L | 70.48 µmol | 52% | – | – | – | –
2 | Cn1nc(Cc2cccc(Cl)c2Cl)c(Cl)c1OC(F)F [Ia.1, 4-Chloro-3-(2,3-dichlorobenzyl)-5-difluoromethoxy-1-methyl-1H-pyrazole] | substantially unchanged | – | – | – | very good | very good | very good | very good
3 | Cn1nc(Cc2cccc(Cl)c2Cl)cc1OC(F)F [Ic.1, 3-(2,3-Dichlorobenzyl)-5-difluoromethoxy-1-methyl-1H-pyrazole] | substantially unchanged | – | – | – | – | – | – | –
